A short description of the data set: Comparison of release rate of agents/salts from film-like implants. The class given is physicochemical. The source says: The amount of the pharmacological agent added to the implant will vary, in a manner understood by those of ordinary skill in the art, depending upon such criteria as: […] The above criteria will depend upon such factors as the patient's age, height, weight, sex, medical history, etc. The pharmacological agent must be present in an amount sufficient to impart therapeutic effect to the pharmaceutical composition. The nature of the active agent in the implant also plays an important role in the control release mechanism. […] Different salts of the same active agent may be released at different rates.

The text below walks through data of patent publication US5023082A, “Sustained-release pharmaceutical compositions” (Yissum Research Development Company of the Hebrew …, priority 1986, dated 1991).

Consider `N=C(NCCCCCCNC(=N)NC(=N)Nc1ccc(Cl)cc1)NC(=N)Nc1ccc(Cl)cc1` [chlorhexidine acetate], for which the “Release rate from film-like implant compared with tetracycline HCl” value (20% w/w per protein, same implant containing 20% w/w tetracycline HCl) was “more slowly”. For the same molecule, the “Release rate from film-like implants compared with chlorhexidine HCl” value (same formulation, 20% (w/w) chlorhexidine per protein) was “more slowly”.
